Test results as given in paper PMC12116762, “Topobexin targets the Topoisomerase II ATPase domain for beta isoform-selective inhibition and anthracycline cardioprotection” (Nature Communications, 2025).
Values joined by “and” are separate entries in the source; they are usually repeats but may differ in a detail not shown here. Equal values may be shown once.

Columns and labels:
TOP2B C88Y = biological target: T1, TOP2B C88Y (Homo sapiens, UniProt Q02880, C93Y); experiment: ATPase activity of TOP2B C88Y mutant; format: biochemical; settings: for effect of C88Y mutation in TOP2B on inhibition: vs TOP2B WT
T1 construct: Using recombinant full-length human TOP2A and TOP2B enzymes; YFP (N, cleaved yes); made in house; host or cells: HEK293F
Protocol: The human topoisomerase II decatenation assay was performed to determine the inhibitory effects of BNS-22 and new compounds as previously described with minor modifications[14],[36]. The assay was performed using recombinant human TOP2A or TOP2B generated using the HEK293F YFP-tag expression system as previously described[18],[19],[36]. Briefly, plasmids encoding YFP-TOP2A or YFP-TOP2B were transfected into HEK293F cells (Catalog number 11625019, Thermofisher Scientific), and TOP2 proteins were isolated from cell lysates by anti-YFP nanobody affinity chromatography. After elution by TEV protease cleavage, TOP2 proteins were FPLC purified by sequential cation exchange and size exclusion chromatography. Plasmid encoding TOP2B C88Y was generated by round-the-horn PCR mutagenesis and the sequence was verified by full-plasmid sequencing. Purified TOP2 proteins were stored in a storage buffer containing 20 mM HEPES pH 7.5, 500 mM NaCl, 0.5 mM TCEP, 25% (v/v) glycerol at -80 °C. For decatenation assays, purified TOP2 proteins were incubated with 200 ng kDNA (Topogen) in a reaction buffer containing 50 mM Tris−HCl (pH 8), 100 mM NaCl, 10 mM MgCl2, 0.5 mM DTT, 2 mM ATP, 0.1 mM tris(2-carboxyethyl)phosphine (TCEP), 5% (v/v) glycerol, 70 μg/mL bovine serum albumin, and 1/10 volume of each compound diluted in 10% DMSO (final DMSO concentration 1%) for 40 min at 37 °C. The reaction was then stopped by the addition of gel loading buffer (0.5 volumes of 60% (w/v) glycerol, 60 mM EDTA, 20 mM Tris−HCl (pH 7.5), 0.5 mg/mL bromophenol blue) and the samples were placed on ice. Reaction products were resolved by agarose gel electrophoresis in TBE buffer containing GelRed stain (Biotium). Gels were visualized using an iBright CL1000 (Thermofisher Scientific). Band intensities were quantified using FIJI, and the signal of the treated samples was normalized to the value of the control (untreated sample; 100%) present on the same gel. The normalized signal of three independent measurements was then expressed as mean ± SD. Each presented data point was obtained from distinct sample. Normalized values were plotted as a function of inhibitor concentration to determine IC50 values by nonlinear regression with variable slope using Prism 9 (GraphPad).
Topoisomerase proteins were diluted to 500 nM in storage buffer containing 20 mM HEPES pH 7.5, 500 mM NaCl, 0.5 mM TCEP, 25% glycerol, and 0.2 mg/mL BSA prior to use. A coupled assay was used to measure TOP2-catalyzed ATP hydrolysis in vitro[37] in Costar 96-well plates (Corning Incorporated). […] Reaction plates were pre-warmed to 30 °C for 5 min and ATP was added last to initiate the reaction. The reaction plate was placed in a CLARIOstarPlus plate reader (BMG Labtech) to measure NADH fluorescence at 30 °C every 30 s over 120 cycles using a 340-60 excitation filter and a 480-100 emission filter. Background fluorescence signals calculated from wells containing no ATP were subtracted from each measurement. The slope of NADH fluorescence decay in each well was calculated using the MARS software (BMG Labtech) and reaction wells that lacked topoisomerase inhibitor to account for photobleaching of NADH fluorescence served as background subtraction. Each presented data point was obtained from distinct sample. Values were normalized to untreated controls and plotted as a function of inhibitor concentration to determine IC50 values using Prism 9 (GraphPad).

γH2AX = experiment: Acute DAU-induced DNA damage (γH2AX) in rabbit LV myocardium; format: in vivo; set-up: γH2AX in LV myocardium: scale not given here; settings: for γH2AX in LV myocardium: individual animals
Protocol: For the determination of γH2aX protein in in vivo experiments, pulverized rabbit LV samples were homogenized in commercial 1× SDS Lysis Buffer (PhosphoSolutions) with phosphatase and protease inhibitor solutions (Thermo Fisher Scientific and Roche, respectively) and boiled at 95 °C for 10 min. Protein concentrations were assessed by the BCA Protein Assay Kit (Sigma-Aldrich), and 85 μg of protein were loaded into Mini-PROTEAN 12% TGX Precast Stain-free Gel (Bio-Rad). After separation, the proteins were transferred onto a nitrocellulose membrane using a Trans-Blot Turbo System (all Bio-Rad). Mouse monoclonal anti-γH2AX (1:800, ab26350, Abcam) was used as the primary antibody, and horseradish peroxidase-conjugated goat anti-mouse immunoglobulin (1:1000, P044701, DAKO) was used as the secondary antibody. The BM Chemiluminescence Blotting Substrate (Roche) and Fusion Solo S coupled with CCD camera (Vilber) were used for signal detection.
Rabbits (n = 24) were divided equally into four groups (n = 6 in each) receiving a single dose as follows: DAU (3 mg/kg, i.v. bolus), saline (1 ml/kg, i.v., the control group), topobexin (9) alone (10 mg/kg, prepared and administered as describe above in the pharmacokinetic study, i.e., in 20 min i.v. infusion) and the combination group (topobexin (9) 10 mg/kg via 20 min i.v. infusion followed by DAU 3 mg/kg as i.v. bolus into the contralateral ear 40 min after the end of topobexin (9) infusion). Based on preliminary data, the experiment was completed 90 min after administration of DAU or saline. The heart was excised and γH2AX as a marker of DNA damage was determined in myocardial homogenates using Western blotting as described above.

HL-60 cell line = test system: HL-60 cell line; set-up: method as in previously determined; settings: ref previously determined, read-out: IC50, antiproliferative; cited from earlier work
caspase 8 = experiment: Caspase 8 activity in NVCM (Caspase-Glo); format: cell-based, rat; settings: for Csp8 activity: independent replicates
Protocol: Caspase activity was assessed on NVCM cells using luciferase-based kits for caspase 3/7, 8 and 9 (Caspase-Glo® 3/7, 8 and 9 assay systems; Promega) according to the manufacturer’s instructions on 384-well plates (Greiner Bio-One). Luminescence signal was measured using Tecan M200 multifunctional plate-reader. All measured groups were corrected for total protein concentration (BCA assay) and were expressed as fold change of the signal over corresponding untreated control group. Each presented data point was obtained from distinct sample. Statistical significance was determined using ratio paired t-test, two-tailed.

T1 sequence (Q02880 1-1621 isoform Q02880-2 C88Y): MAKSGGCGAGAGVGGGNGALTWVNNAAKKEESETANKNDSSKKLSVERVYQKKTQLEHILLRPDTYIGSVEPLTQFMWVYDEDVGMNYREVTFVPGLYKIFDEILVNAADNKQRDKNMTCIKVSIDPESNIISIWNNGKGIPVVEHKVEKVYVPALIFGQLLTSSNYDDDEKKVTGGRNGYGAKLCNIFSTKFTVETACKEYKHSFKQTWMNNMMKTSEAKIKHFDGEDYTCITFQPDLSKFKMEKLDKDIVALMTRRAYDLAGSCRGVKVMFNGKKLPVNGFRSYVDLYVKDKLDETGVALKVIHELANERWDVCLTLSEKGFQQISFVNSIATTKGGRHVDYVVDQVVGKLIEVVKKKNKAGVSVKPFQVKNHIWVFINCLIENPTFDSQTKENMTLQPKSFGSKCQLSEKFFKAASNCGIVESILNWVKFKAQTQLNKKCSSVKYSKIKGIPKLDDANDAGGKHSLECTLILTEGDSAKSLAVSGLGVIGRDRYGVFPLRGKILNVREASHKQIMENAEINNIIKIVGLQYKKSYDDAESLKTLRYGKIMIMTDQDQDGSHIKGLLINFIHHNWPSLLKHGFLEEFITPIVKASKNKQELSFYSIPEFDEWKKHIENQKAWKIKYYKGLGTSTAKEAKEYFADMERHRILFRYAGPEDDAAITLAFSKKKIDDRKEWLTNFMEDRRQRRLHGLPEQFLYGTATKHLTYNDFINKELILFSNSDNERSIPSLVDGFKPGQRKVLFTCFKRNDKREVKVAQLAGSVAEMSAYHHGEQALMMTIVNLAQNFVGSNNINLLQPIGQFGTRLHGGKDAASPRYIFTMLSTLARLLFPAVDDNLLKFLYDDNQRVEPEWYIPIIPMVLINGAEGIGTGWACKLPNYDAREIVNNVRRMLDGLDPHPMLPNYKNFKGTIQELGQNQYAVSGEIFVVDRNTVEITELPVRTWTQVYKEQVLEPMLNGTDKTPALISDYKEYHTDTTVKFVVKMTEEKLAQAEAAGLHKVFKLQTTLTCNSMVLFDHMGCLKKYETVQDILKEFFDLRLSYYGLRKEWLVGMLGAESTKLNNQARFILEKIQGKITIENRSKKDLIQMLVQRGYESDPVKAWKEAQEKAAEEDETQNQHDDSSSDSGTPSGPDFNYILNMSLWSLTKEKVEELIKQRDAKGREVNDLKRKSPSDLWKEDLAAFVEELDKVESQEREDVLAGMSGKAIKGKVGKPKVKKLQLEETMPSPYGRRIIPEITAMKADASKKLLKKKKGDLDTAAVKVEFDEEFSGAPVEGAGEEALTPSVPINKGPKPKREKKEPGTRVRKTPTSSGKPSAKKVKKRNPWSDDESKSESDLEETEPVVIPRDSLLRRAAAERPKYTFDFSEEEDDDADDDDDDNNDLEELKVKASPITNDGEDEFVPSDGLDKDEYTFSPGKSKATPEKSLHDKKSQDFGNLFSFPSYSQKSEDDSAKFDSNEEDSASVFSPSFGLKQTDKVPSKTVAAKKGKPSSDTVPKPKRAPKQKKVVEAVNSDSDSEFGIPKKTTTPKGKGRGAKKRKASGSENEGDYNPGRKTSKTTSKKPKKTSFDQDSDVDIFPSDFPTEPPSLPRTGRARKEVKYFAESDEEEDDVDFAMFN

Question: Which IC50 (TOP2B C88Y) does the source give for CCCc1cc(=O)oc2c(C(=O)N3CCCc4ccccc43)c(OC)cc(OC)c12 [BNS-22] here?
Answer: Its IC50 is 1550 nM.

Question: What about the “effect of C88Y mutation in TOP2B on inhibition” value (TOP2B C88Y) of the same molecule?
Answer: The value was “did not alter inhibition”.

Question: With COc1cccc2c1C(=O)c1c(O)c3c(c(O)c1C2=O)C[C@@](O)(C(C)=O)C[C@@H]3O[C@H]1C[C@H](N)[C@H](O)[C@H](C)O1 [DAU, daunorubicin, reference compound] as the molecule, how does the “γH2AX in LV myocardium” value (γH2AX; DAU 3 mg/kg alone, 1.5 h) read?
Answer: The value was 10.11 and 5.83 and 6.97 and 6.98 and 3.35 and 7.46.

Question: And the IC50 (HL-60 cell line)?
Answer: Its IC50 is 15 nM.

Question: What about the “Csp8 activity, mean” value (caspase 8; DAU 1.2 μM alone) of the same molecule?
Answer: The value was 2.2056 fold change.

Question: What about the Csp8 activity (caspase 8; DAU 1.2 μM alone) of the same molecule?
Answer: The Csp8 activity was 1.777 fold change and 1.7129 fold change and 3.182 fold change and 1.952 fold change and 2.3428 fold change and 2.2669 fold change.

Question: Which results are given for CCCc1cc(=O)oc2c(C(=O)N3CCCc4ccccc43)c(OCCN3CCN(C)CC3)ccc12 [topobexin (9)]?
Answer: DAU-induced DNA damage (γH2AX) in LV myocardium (γH2AX; 10 mg/kg before DAU 3 mg/kg, 1.5 h after DAU): effectively prevent induction of DNA damage; γH2AX in LV myocardium (γH2AX; Topobexin alone 10 mg/kg): 1.55 and 1.42 and 1.45 and 1.03 and 1.17 and 1.33; γH2AX in LV myocardium (γH2AX; Topobexin+DAU): 1.79 and 1.30 and 1.64 and 0.82 and 1.38 and 2.72; Csp8 activity, mean (caspase 8; Cmpd 9 10 μM + DAU 1.2 μM): 1.776 fold change; Csp8 activity (caspase 8; Cmpd 9 10 μM + DAU 1.2 μM): 1.323 fold change and 1.259 fold change and 2.008 fold change and 1.4395 fold change and 2.674 fold change and 1.95 fold change; Csp8 activity, mean (caspase 8; Cmpd 9 10 μM alone): 1.035 fold change; Csp8 activity (caspase 8; Cmpd 9 10 μM alone): 0.9315 fold change and 1.0306 fold change and 0.962 fold change and 0.8268 fold change and 1.054 fold change and 1.403 fold change; IC50 (TOP2B C88Y): 1880 nM; remaining activity at 0.0625 µM (TOP2B C88Y; 0.0625 μM, independent replicates, normalized to 0 drug): 98.2%; remaining activity at 0.125 µM (TOP2B C88Y; 0.125 μM, independent replicates, normalized to 0 drug): 97.9%; remaining activity at 0.25 µM (TOP2B C88Y; 0.25 μM, independent replicates, normalized to 0 drug): 95.9%; remaining activity at 0.5 µM (TOP2B C88Y; 0.5 μM, independent replicates, normalized to 0 drug): 84.7%; remaining activity at 1 µM (TOP2B C88Y; 1 μM, independent replicates, normalized to 0 drug): 69.3%; remaining activity at 2 µM (TOP2B C88Y; 2 μM, independent replicates, normalized to 0 drug): 43.5%; remaining activity at 4 µM (TOP2B C88Y; 4 μM, independent replicates, normalized to 0 drug): 18.5%; remaining activity at 8 µM (TOP2B C88Y; 8 μM, independent replicates, normalized to 0 drug): 6.37%; effect of C88Y mutation in TOP2B on inhibition (TOP2B C88Y): conferred significant resistance to inhibition
